Data from US12421238B2, “Selective dihydropyrrolopyrimidine JAK2 inhibitors” (CHENGDU JINRUI FOUNDATION BIOTECH CO., LTD., priority 2019, dated 2025).

What was measured:
[1] = tested on: HEL92.1.7; experiment: HEL92.1.7 cell proliferation experiment (Cell Titer-Glo); assay type: cell-based; conditions: Homo sapiens, HEL 92.1.7; HEL92.1.7 cells, 72 hours
[2] = tested on: TF-1; experiment: TF-1 cell proliferation experiment (CellTiter Glo); assay type: cell-based; conditions: Homo sapiens; TF-1 cells, 72 hours; read-out: TF-1 (μM), proliferation inhibition
[3] = Pharmacokinetic test in SD rats, intragastric administration; assay type: in vivo; conditions: rat, po, single intragastric administration, 25 mg/kg, plasma; for Cmax: read-out: Blood concentration Cmax; for AUC(0-t): read-out: Curve area AUClast; for half-life: read-out: Half life t1/2 (converted); for Tmax: read-out: Time to peak Tmax
Method: SD rats were used as the test animals.
Standard curve and preparation and processing of quality control samples:
Stock solution was diluted with 50% acetonitrile/water solution to obtain standard working solutions of 0.04, 0.10, 0.20, 0.40, 1.00, 2.00, 4.00 μg/mL, and quality control working solutions of 0.10, 1.00, 3.00 μg/mL. 2.50 μL of standard curve working solutions and quality control working solutions were added to 47.5 μL of blank rat plasma, respectively, to obtain standard curve solutions having analyte concentrations of 2.00, 5.00, 10.00, 20.00, 50.00, 100.00, 200.00 ng/mL and quality control samples having concentrations of 5.00, 50.00, and 150.00 ng/mL. 200 μL of acetonitrile (containing 5 ng/mL of the internal standard loratadine) was added. After vortexing for 3 minutes, the solutions were centrifuged at 15000 rpm at 4° C. for 15 minutes. 100 μL of the supernatant was taken for LC-MS/MS analysis. WinNonlin® 8.0 was used to calculate the experimental results.

[4] = Acute toxicity test, single oral administration to ICR mice (MTD); assay type: in vivo; conditions: ICR, mouse, in vivo, po, read-out: MTD (maximum tolerated dose)
[5] = tested on: ICR mice; experiment: as above; assay type: in vivo
[6] = biological target: JAK1 (Homo sapiens, UniProt P23458); experiment: Kinase activity test on JAK1 (Caliper EZ Reader conversion rate)
JAK1, sequence (P23458 whole entry): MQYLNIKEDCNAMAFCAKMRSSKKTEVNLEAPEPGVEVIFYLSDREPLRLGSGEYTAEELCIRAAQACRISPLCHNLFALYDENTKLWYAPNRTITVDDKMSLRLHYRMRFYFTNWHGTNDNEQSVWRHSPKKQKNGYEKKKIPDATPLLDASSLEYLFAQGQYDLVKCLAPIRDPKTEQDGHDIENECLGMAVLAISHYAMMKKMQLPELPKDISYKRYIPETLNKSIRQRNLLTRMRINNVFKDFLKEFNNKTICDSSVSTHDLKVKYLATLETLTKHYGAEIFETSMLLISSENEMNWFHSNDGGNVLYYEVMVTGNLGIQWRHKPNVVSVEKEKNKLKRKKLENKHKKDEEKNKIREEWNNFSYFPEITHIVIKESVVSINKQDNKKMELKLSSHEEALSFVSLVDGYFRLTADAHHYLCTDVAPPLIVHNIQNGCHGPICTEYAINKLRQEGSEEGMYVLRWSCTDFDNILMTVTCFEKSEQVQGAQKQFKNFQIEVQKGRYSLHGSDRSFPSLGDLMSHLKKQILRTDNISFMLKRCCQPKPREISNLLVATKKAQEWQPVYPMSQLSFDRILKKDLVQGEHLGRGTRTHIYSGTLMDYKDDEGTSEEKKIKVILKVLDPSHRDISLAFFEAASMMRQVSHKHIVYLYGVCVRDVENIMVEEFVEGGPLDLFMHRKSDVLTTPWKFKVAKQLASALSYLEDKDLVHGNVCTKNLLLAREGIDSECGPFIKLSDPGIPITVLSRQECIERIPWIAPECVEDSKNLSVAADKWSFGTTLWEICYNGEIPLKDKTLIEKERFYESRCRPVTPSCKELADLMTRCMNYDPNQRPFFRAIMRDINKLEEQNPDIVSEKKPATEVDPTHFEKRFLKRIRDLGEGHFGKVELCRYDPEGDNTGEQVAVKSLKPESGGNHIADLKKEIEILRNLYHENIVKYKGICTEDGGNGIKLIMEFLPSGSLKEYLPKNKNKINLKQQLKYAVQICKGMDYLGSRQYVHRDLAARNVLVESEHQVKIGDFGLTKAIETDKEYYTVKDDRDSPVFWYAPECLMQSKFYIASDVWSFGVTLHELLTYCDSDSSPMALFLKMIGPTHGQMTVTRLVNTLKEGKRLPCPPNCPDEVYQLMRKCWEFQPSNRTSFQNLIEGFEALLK

[7] = biological target: JAK2 (Homo sapiens, UniProt O60674); experiment: Kinase activity test on JAK2 (Caliper EZ Reader conversion rate); conditions: for JAK1/JAK2 / JAK3/JAK2: ratio of IC50 values; for JAK1/JAK2: selectivity for JAK2 over JAK1; for JAK3/JAK2: selectivity for JAK2 over JAK3
JAK2, sequence (O60674 whole entry): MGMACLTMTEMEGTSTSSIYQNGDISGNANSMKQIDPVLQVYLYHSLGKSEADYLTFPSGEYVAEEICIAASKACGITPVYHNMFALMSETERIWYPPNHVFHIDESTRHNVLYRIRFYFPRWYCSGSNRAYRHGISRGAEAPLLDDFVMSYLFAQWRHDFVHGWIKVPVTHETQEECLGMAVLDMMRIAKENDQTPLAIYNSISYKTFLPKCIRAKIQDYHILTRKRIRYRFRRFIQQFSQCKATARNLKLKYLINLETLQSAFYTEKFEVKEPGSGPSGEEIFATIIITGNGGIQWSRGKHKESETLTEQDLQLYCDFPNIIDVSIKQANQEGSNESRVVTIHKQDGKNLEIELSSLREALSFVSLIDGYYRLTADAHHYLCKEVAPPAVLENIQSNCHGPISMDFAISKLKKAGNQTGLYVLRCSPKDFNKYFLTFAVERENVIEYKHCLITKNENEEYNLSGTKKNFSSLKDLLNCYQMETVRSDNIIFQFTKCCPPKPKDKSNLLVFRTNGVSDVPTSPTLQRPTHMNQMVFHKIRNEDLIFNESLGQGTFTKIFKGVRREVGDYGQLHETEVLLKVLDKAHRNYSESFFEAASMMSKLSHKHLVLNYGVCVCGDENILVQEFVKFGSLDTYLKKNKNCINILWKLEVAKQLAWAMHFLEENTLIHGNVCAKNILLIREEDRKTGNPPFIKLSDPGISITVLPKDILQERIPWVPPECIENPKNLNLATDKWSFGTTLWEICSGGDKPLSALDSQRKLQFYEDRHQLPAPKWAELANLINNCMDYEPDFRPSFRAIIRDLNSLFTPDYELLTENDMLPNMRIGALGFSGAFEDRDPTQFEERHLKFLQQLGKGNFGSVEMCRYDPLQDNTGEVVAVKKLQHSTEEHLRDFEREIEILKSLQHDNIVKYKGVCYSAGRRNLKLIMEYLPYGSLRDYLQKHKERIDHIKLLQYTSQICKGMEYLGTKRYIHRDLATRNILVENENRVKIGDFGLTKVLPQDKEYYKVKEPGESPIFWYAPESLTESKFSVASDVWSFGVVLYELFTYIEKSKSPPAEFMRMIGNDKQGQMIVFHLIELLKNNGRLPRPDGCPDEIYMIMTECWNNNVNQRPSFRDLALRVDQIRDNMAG

[8] = biological target: T1, JAK3 (Homo sapiens, UniProt P52333); experiment: Kinase activity test on JAK3 (Caliper EZ Reader conversion rate)
T1 sequence (P52333 1-1124): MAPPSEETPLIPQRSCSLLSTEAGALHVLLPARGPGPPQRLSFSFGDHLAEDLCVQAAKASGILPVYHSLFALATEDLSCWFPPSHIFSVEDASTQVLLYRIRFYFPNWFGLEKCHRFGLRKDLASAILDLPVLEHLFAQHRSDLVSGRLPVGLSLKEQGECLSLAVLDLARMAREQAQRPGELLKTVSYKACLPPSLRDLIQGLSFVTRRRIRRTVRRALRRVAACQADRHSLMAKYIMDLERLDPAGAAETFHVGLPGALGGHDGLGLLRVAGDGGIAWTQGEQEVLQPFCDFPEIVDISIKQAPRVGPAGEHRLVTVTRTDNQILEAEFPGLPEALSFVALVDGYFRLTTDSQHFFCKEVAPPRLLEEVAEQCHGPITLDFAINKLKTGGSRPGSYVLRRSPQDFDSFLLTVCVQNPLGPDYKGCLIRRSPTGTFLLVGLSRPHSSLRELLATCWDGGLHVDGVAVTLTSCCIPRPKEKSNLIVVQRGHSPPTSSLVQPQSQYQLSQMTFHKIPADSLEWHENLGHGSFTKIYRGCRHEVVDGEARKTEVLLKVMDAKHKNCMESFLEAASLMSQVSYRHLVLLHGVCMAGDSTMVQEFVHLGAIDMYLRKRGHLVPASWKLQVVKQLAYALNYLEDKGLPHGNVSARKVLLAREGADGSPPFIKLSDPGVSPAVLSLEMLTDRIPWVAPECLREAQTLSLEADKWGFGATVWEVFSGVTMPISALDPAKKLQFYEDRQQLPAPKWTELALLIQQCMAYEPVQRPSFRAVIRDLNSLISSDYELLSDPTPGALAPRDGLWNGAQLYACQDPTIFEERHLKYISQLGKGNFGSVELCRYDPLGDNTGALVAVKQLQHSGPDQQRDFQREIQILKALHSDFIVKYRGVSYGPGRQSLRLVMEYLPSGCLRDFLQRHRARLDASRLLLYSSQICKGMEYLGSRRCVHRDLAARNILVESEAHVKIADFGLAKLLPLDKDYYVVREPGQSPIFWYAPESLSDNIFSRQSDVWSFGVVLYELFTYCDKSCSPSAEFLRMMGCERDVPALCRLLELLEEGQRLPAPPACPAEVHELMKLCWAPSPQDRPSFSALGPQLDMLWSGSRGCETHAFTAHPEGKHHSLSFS

Row | Compound | IC50 [1] [µM] | IC50 [2] [µM] | Cmax [3] [ng/mL] | AUC(0-t) [3] [ng·h/mL] | half-life [3] [h] | Tmax [3] [h] | MTD at 6 days [4] [mg/kg] | MTD (maximum tolerated dose) [5] [mg/kg] | IC50 [6] [nM] | IC50 [7] [nM] | JAK1/JAK2 [7] | JAK3/JAK2 [7] | IC50 [8] [nM]
1 | CN1CCN(CCOc2ccc(Nc3ncc4c(n3)N(c3cccc(S(=O)(=O)NC(C)(C)C)c3)CC4)cc2)CC1 [Compound I-4] | 0.34 | 0.18 | 1100 | 807 | 6.2 | 1.5 | ≥ 1000 | 1000 | 105 | 1.2 | 87 | 850 | 1020
2 | CN1CCN(c2ccc(Nc3ncc4c(n3)N(c3cccc(S(=O)(=O)NC(C)(C)C)c3)CC4)cc2)CC1 [Compound I-15] | 0.17 | 0.12 | 1240 | 934 | 6.8 | 1.5 | > 2000 | >2000 | 72 | 0.73 | 99 | 819 | 598
3 | CC(C)(C)NS(=O)(=O)c1cccc(N2CCc3cnc(Nc4ccc(OC5CCNCC5)cc4)nc32)c1 [Compound I-19] | 0.21 | 0.17 | 1120 | 935 | 6.2 | 1.5 | ≥ 1000 | 1500 | 121 | 0.9 | 134 | 1689 | 1520
4 | CC(C)(C)NS(=O)(=O)c1cccc(N2CCc3cnc(Nc4ccc(C5CCNCC5)cc4)nc32)c1 [Compound I-20] | 0.25 | 0.19 | 1030 | 912 | 6.3 | 2 | > 2000 | >2000 | 130 | 1 | 130 | 1433 | 1430
